Measured values taken from patent US4241070A, “Analgesic benzomorphan derivatives” (priority 1975, dated 1980).
Structures can show the parent of a compound that is named as a salt. Where two headings read alike, the source gives them in different places.

Columns and labels:
[1] = cited from earlier work
[2] = cited from earlier work; remark: listed apart in the source
[3] = abstinence syndrome test (body weight after drug withdrawal); settings: for Abstinence syndrome: subcutaneous, twice a day, male rats, body weight decrease the day after withdrawal
Experimental: Groups of male rats of Wister strain (body weight, 150 g), each group
consisting of 20 male rats, were subcutaneously given the test compound
twice a day for 4 consecutive weeks. On the next day after drug
withdrawal, body weight was measured. The symbols have the following
meanings: +++, severe decrease (about 5% decrease); ++, moderate decrease
+, mild decrease; -, no decrease. A marked decrease is taken as an […]

[4] = system: typical syndrome produced by intraperitoneal injection of 0.6% aqueous acetic acid; experiment: writhing test (acetic acid); type: in vivo, mice; settings: for ED50: Mus musculus
Experimental: The test was based on the specific antagonism of the test compound to
typical syndrome produced by intraperitoneal injection of 0.6% aqueous
acetic acid. The syndrome was characterized by intermittent contractions
of the abdomen, twisting and turning of the trunk and extension of the
hind legs. A group of 5 mice was used for each dose level. The test
compound was administered 60 minutes before the injection of acetic acid
subcutaneously (sc) or orally (po).
pain response was recorded. The ED50 value was calculated according
to the LitchfieldWilcoxen's method.

[5] = sc, subcutaneous, 60 minutes before acetic acid, mice, Litchfield-Wilcoxen, read-out: ED50 SC
[6] = oral, 60 minutes before acetic acid, mice, Litchfield-Wilcoxen, read-out: ED50 PO

CC1C2Cc3ccc(O)cc3C1(C)CCN2C (stereo not drawn) [2'-Hydroxy-2,5,9-trimethyl-6,7-benzomorphan]
analgesia ([1]; U.S. Pat. No. 3,138,603): potent analgesia
addiction liability ([2]; U.S. Pat. No. 3,138,603): has an addiction liability
Abstinence syndrome ([3]; 20 mg/kg/day for 4 weeks): ++

CC(C)=CCN1CCC2(C)c3cc(O)ccc3CC1C2C (stereo not drawn) [2'-hydroxy-5,9-dimethyl-2-(3"-methyl-2"-butenyl)-6,7-benzomorphan]
ED50 [4, 5]: 17.6 mg/kg
ED50 [4, 6]: 98 mg/kg

CC1C2Cc3ccc(O)cc3C1(C)CCN2CCCC(=O)c1ccc(F)cc1 (stereo not drawn) [2-[γ-(p-fluorobenzoyl)-propyl]-2'-hydroxy-5,9-dimethyl-6,7-benzomorphan]
effectiveness by route of administration ([1]; 2-[γ-(p-fluorobenzoyl)-propyl]-2'-hydroxy-5,9-dimethyl-6,7-benzomorphan): effective when administered parenterally rather than orally
analgesic activity ([1]; U.S. Pat. No. 3,833,595): significant analgesic activity
drug addiction ([2]; U.S. Pat. No. 3,833,595): without causing drug addiction

Cc1ccc2c(c1)C1(C)CCN(CCCC(=O)c3ccc(F)cc3)C(C2)C1C (stereo not drawn) [Example 1, 2-[γ-(p-Fluorobenzoyl)-propyl]-2',5,9-trimethyl-6,7-benzomorphan]
ED50 [4, 5]: 7.9 mg/kg
ED50 [4, 6]: 9.6 mg/kg
analgesic effectiveness compared with pentazocine ([4]; oral and subcutaneous administration): more effective than pentazocine
Abstinence syndrome ([3]; 40 mg/kg/day for 4 weeks): -
addictive property ([3]; as shown in Table 2): did not exhibit any addictive property

CN1CC[C@]23c4c5ccc(O)c4O[C@H]2[C@@H](O)C=C[C@H]3[C@H]1C5 [Morphine . hydrochloride, Morphine]
ED50 ([4]; po, read-out: ED50 PO): 7 mg/kg
ED50 ([4]; sc, read-out: ED50 SC): 1.6 mg/kg
